Assay results: patent US20230348362A1, “LIPID COMPOUNDS AND LIPID NANOPARTICLE COMPOSITIONS” (Suzhou Abogen Biosciences Co., Ltd., priority 2021, published 2023)

How the values were obtained:
Type in all cases: physicochemical
[1] = Apparent pKa of LNP formulations, TNS fluorescence assay; conditions: LNP cationic lipid/DSPC/cholesterol/DMG-PEG 50/10/38.5/1.5 mol %
Method: As reported in literature, the apparent pKa of LNP formulations correlates with the delivery efficiency of LNPs for nucleic acids in vivo. The apparent pKa of each formulation was determined using an assay based on fluorescence of 2-(p-toluidino)-6-napthalene sulfonic acid (TNS). LNP formulations comprising of cationic lipid/DSPC/cholesterol/DMG-PEG (50/10/38.5/1.5 mol %) in PBS were prepared as described above. TNS was prepared as a 300 μM stock solution in distilled water. LNP formulations were diluted to 0.1 mg/mL total lipid in 3 mL of buffered solutions containing 50 mM sodium citrate, 50 mM sodium phosphate, 50 mM sodium borate, and 30 mM sodium chloride where the pH ranged from 3 to 9. An aliquot of the TNS solution was added to give a final concentration of […] and following vortex mixing fluorescence intensity was measured at room temperature in a Molecular Devices Spectramax iD3 spectrometer using excitation and mission wavelengths of 325 nm and 435 nm. A sigmoidal best fit analysis was applied to the fluorescence data and the pKa value was measured as the pH giving rise to half-maximal fluorescent intensity.

[2] = Lipid nanoparticle size and polydispersity by dynamic light scattering; conditions: LNP of lipid/DSPC/cholesterol/PEG-lipid 50:10:38.5:1.5 encapsulating hEPO mRNA
Method: (§1) Briefly, a cationic lipid provided herein, DSPC, cholesterol, and PEG-lipid were solubilized in ethanol at a molar ratio of 50:10:38.5:1.5, and mRNA were diluted in 10 to 50 mM citrate buffer, pH=4. The LNPs were prepared at a total lipid to mRNA weight ratio of approximately 10:1 to 30:1 by mixing the ethanolic lipid solution with the aqueous mRNA solution at a volume ratio of 1:3 using a microfluidic apparatus, total flow rate ranging from 9-30 mL/min. Ethanol were thereby removed and replaced by DPBS using dialysis. Finally, the lipid nanoparticles were filtered through a […] sterile filter.
(§2) Lipid nanoparticle size were determined by dynamic light scattering using a Malvern Zetasizer Nano ZS (Malvern UK) using a […] backscatter detection mode. The encapsulation efficiency of lipid nanoparticles were determined using a Quant-it Ribogreen RNA quantification assay kit (Thermo Fisher Scientific, UK) according to the manufacturer's instructions.

[3] = Encapsulation efficiency of lipid nanoparticles, Quant-it Ribogreen RNA assay; conditions: LNP of lipid/DSPC/cholesterol/PEG-lipid 50:10:38.5:1.5 encapsulating hEPO mRNA
Method: as §1, §2

| SMILES | Apparent Pka [1] | polydispersity [2] | size (nm) [2] | Encapsulation Efficiency [3] |
| --- | --- | --- | --- | --- |
| CCCCCCCCC(CCCCCCCC)COC(=O)CCCCCN(CC)CCN(CCO)CCCCCC(=O)OCC(CCCCCCCC)CCCCCCCC [Compound 27] | 6.858 | 0.118 | 57.08 nm | 95.20% |
| CCCCCCCCC(CCCCCCCC)COC(=O)CCCCCN(CCO)CCN(CCCCCC(=O)OCC(CCCCCCCC)CCCCCCCC)C1CCOCC1 [Compound 28] | 6.686 | 0.045 | 62.35 nm | 92.4% |
| CCCCCCCCC(CCCCCCCC)COC(=O)CCCCCN(CCO)CCN(CCCCCC(=O)OCC(CCCCCCCC)CCCCCCCC)C1CCC(C(F)(F)F)CC1 (stereo not shown) [Compound 29] | 6.073 | 0.09 | 59.02 nm | 93.5% |
| CCCCCCCCC(CCCCCCCC)COC(=O)CCCCCN(CCO)CCN(CCCCCC(=O)OCC(CCCCCCCC)CCCCCCCC)C1CCSCC1 [Compound 30] | 6.131 | 0.115 | 53.56 nm | 92.9% |
| CCCCCCCCC(CCCCCCCC)COC(=O)CCCCCN(CCO)CCN(CCCCCC(=O)OCC(CCCCCCCC)CCCCCCCC)C1CCC(C)(C)CC1 [Compound 31] | 5.708 | 0.092 | 54.55 nm | 88.2% |
| CCCCCCCCC(CCCCCCCC)COC(=O)CCCCCN(CCC)CCN(CCO)CCCCCC(=O)OCC(CCCCCCCC)CCCCCCCC [Compound 32] | 6.378 | 0.04 | 57.09 nm | 92.1% |
| CCCCCCCCC(CCCCCCCC)COC(=O)CCCCCN(CCO)CCN(CCCCCC(=O)OCC(CCCCCCCC)CCCCCCCC)C1CCOC1 (stereo not shown) [Compound 33] | 6.305 | 0.052 | 57.51 nm | 87.6% |
| CCCCCCCCC(CCCCCCCC)COC(=O)CCCCCN(CCO)CCN(CCCCCC(=O)OCC(CCCCCCCC)CCCCCCCC)C1CCCCC1C (stereo not shown) [Compound 34] | 5.485 | 0.05 | 55.14 nm | 87.2% |
| CCCCCCCCC(CCCCCCCC)COC(=O)CCCCCN(CCO)CCN(CCCCCC(=O)OCC(CCCCCCCC)CCCCCCCC)CC1CCCC1 [Compound 35] | 5.843 | 0.089 | 54.18 nm | 90.0% |
| CCCCCCCCC(CCCCCCCC)COC(=O)CCCCCN(CCO)CCN(CCCCCC(=O)OCC(CCCCCCCC)CCCCCCCC)Cc1ccccc1 [Compound 36] | 5.802 | 0.093 | 49.69 nm | 89.3% |
| CCCCCCCCC(CCCCCCCC)COC(=O)CCCCCN(CCO)CCN(CCCCCC(=O)OCC(CCCCCCCC)CCCCCCCC)Cc1ccncc1 [Compound 37] | 6.988 | 0.037 | 71.53 nm | 87.2% |
| CCCCCCCCC(CCCCCCCC)COC(=O)CCCCCN(CCO)CCN(CCCCCC(=O)OCC(CCCCCCCC)CCCCCCCC)Cc1ccc([N+](=O)[O-])cc1 [Compound 38] | 6.253 | 0.092 | 54.42 nm | 89.8% |
| CCCCCCCCC(CCCCCCCC)COC(=O)CCCCCN(CCO)CCN(CCCCCC(=O)OCC(CCCCCCCC)CCCCCCCC)Cc1ccc(C)cc1 [Compound 39] | 5.740 | 0.034 | 55.02 nm | 84.0% |
| CCCCCCCCC(CCCCCCCC)COC(=O)CCCCCN(CCO)CCN(CCCCCC(=O)OCC(CCCCCCCC)CCCCCCCC)C1CCC(C)CC1 (stereo not shown) [Compound 40] | 5.838 | 0.03 | 52.06 nm | 87.1% |
| C/C=C/CN(CCCCCC(=O)OCC(CCCCCCCC)CCCCCCCC)CCN(CCO)CCCCCC(=O)OCC(CCCCCCCC)CCCCCCCC [Compound 41] | 6.134 | 0.067 | 55.24 nm | 88.2% |
| CCCCCCCCC(CCCCCCCC)COC(=O)CCCCCN(CC=C(C)C)CCN(CCO)CCCCCC(=O)OCC(CCCCCCCC)CCCCCCCC [Compound 42] | 6.159 | 0.046 | 66.04 nm | 90.1% |

| SMILES | Apparent Pka [1] | polydispersity [2] | size (nm) [2] | Encapsulation Efficiency [3] |
| --- | --- | --- | --- | --- |
| CCCCCCCCCCCOC(=O)CCCCCN(CCN(CCO)CCCCCCC(=O)OCC(CCCCCCCC)CCCCCCCC)C1CCCCC1 [Compound 43] | 6.346 | 0.07 | 66.41 nm | 89.6% |
| CCCCCCCCCCCOC(=O)CCCCCN(CCO)CCN(CCCCCC(=O)OCC(CCCCCCCC)CCCCCCCC)C1CCCCC1 [Compound 45] | 6.402 | 0.051 | 63.5 nm | 90.9% |
| CCCCCCCCCCCOC(=O)CCCCCN(CCN(CCO)CCCCCC(=O)C(CCCCCC)CCCCCCCCC)C1CCCCC1 (stereo not shown) [Compound 46] | 6.335 | 0.042 | 64.14 nm | 90.3% |
| CCCCCCCCCCCOC(=O)CCCCCN(CCN(CCO)CCCCCC(=O)OCC(CCCCCCCCCC)CCCCCCCCCC)C1CCCCC1 [Compound 47] | 6.298 | 0.037 | 66.29 nm | 91.0% |
| CCCCCCCCCCCOC(=O)CCCCCN(CCN(CCO)CCCCCCCC(=O)OCC(CCCCCCCC)CCCCCCCC)C1CCCCC1 [Compound 48] | 6.295 | 0.037 | 73.5 nm | 92.1% |
| CCCCCCCCCCCOC(=O)CCCCCN(CCN(CCO)CCCCCC(=O)OCC(CCCCCCCC)CCCCCCCC)C1CCC(F)(F)CC1 [Compound 49] | 6.153 | 0.1 | 55.04 nm | 95.5% |
| CCCCCCCCCCCOC(=O)CCCCCN(CCN(CCO)CCCCCC(=O)OCC(CCCCCCCC)CCCCCCCC)C1CC(F)(F)C1 [Compound 50] | 5.786 | 0.235 | 59.59 nm | 93.4% |
| CCCCCCCCC(CCCCCCCC)COC(=O)CCCCCN(C)CCN(CCCCCC(=O)OCC(CCCCCCCC)CCCCCCCC)C1CCC(O)CC1 (stereo not shown) [Compound 51] | 6.579 | 0.028 | 83.92 nm | 97.0% |
| CCCCCCCCC(CCCCCCCC)COC(=O)CCCCCN(CCC)CCN(CCCCCC(=O)OCC(CCCCCCCC)CCCCCCCC)C1CCC(O)CC1 (stereo not shown) [Compound 52] | 6.114 | 0.089 | 67.63 nm | 95.6% |
| CCCCCCCCC(CCCCCCCC)COC(=O)CCCCCN(CCCCCC)CCN(CCCCCC(=O)OCC(CCCCCCCC)CCCCCCCC)C1CCC(O)CC1 (stereo not shown) [Compound 53] | 5.872 | 0.062 | 63.7 nm | 95.7% |
| CCCCCCCCCCCOC(=O)CCCCCN(CCN(CCO)CCCCCC(=O)OCC(CCCCCCCC)CCCCCCCC)C1CC(OC)C1 (stereo not shown) [Compound 54] | 6.51 | 0.065 | 77.99 nm | 93.4% |
| CCCCCCCCC(CCCCCCCC)COC(=O)CCCCCN(CCN(CCCCCC(=O)OCC(CCCCCCCC)CCCCCCCC)C1CCC(O)CC1)C1CCC1 (stereo not shown) [Compound 55] | 5.951 | 0.071 | 83.97 nm | 95.6% |
| CCCCCCCCC(CCCCCCCC)COC(=O)CCCCCN(CCO)CCN(CCCCCC(=O)OCC(CCCCCCCC)CCCCCCCC)Cc1ccc(O)cc1 [Compound 56] | 6.702 | 0.174 | 57.44 nm | 92.96% |
| CCCCCCCCCCCC(=O)OCCCCCN(CCN(CCO)CCCCCOC(=O)CC(CCCCCCCC)CCCCCCCC)C1CCCCC1 [Compound 57] | 6.509 | 0.044 | 79.95 nm | 91.7% |
| CCCCCCCCCCCC(=O)NCCCCCN(CCN(CCO)CCCCCNC(=O)CC(CCCCCCCC)CCCCCCCC)C1CCCCC1 [Compound 58] | 7.327 | 0.1 | 110 nm | 97.7% |
